Here are results for 1 compound from patent publication US10238667B2, “Vitamin D receptor/SMAD genomic circuit gates fibrotic response” (Salk Institute for Biological Studies, priority 2013, dated 2019).

One assay concerns SMAD3. Description: Immunoprecipitation/Western blot of total and phosphorylated SMAD3 in LX-2 cells. It counts as cell-based, human. The note with it: TGFβ1 1 ng/ml +/- calcipotriol 100 nM. As to the method:
Nuclear extracts were immunoprecipitated using a SMAD2/3 antibody prior to Western blot analysis. Asterisks denote non-specific bands.
The whole cell lysates were obtained through RIPA buffer lysis while isolation of nuclear extract was performed as previously reported (Ding et al., 2008). Total and nuclear SMAD3 were immunoprecipitated from LX-2 whole cell and nuclear extracts, respectively, using anti-SMAD2/3 antibody (Santa Cruz, sc-133098) followed by SDS-PAGE and western blot detection by anti-SMAD3 (Cell Signaling, 9523) and anti-pSMAD3 (Cell Signaling, 9520) specific antibodies.

Assay [1] concerns CBP, p300 and acetylated histone H3. Description: ChIP-qPCR of CBP, p300 and acetylated histone H3 at COL1A1 regulatory region in LX-2 cells. In kind it is cell-based, human. Conditions: co-treated with calcipotriol 100 nM and TGFβ1 1 ng/ml. The source says:
FIGS. 12A-12B. Coactivator/Corepressor Recruitment and Histone H3 Acetylation Status at Regulatory Regions of Fibrotic Genes Co-occupied by VDR and SMAD. […] The level of occupancy is expressed relative to input chromatin in LX-2 cells treated with corresponding conditions. Data represents the mean+/−SEM of at least three independent experiments performed in triplicate. Asterisks denote statistically significant differences (Student's t test, *p<0.05). […] The level of occupancy is expressed relative to input chromatin in LX-2 cells treated with corresponding conditions.
Cells were then harvested for ChIP assay. The experimental procedure for ChIP was as previously described (Barish et al., 2010). Briefly, after fixation, nuclei from LX-2 cells were isolated, lysed and sheared with a Diagenode Bioruptor to yield DNA fragment sizes of 200-1000 base pairs followed by immunoprecipitation using antibodies listed below: normal rabbit IgG (Santa Cruz, sc-2027), VDR (Santa Cruz, sc-1008), SMAD3 (Abcam, ab28379) and histone H3 (Abcam, ab1791). For ChIP-Re-ChIP, after first ChIP, the immunoprecipitated DNA-protein complex was eluted from beads using 10 mM DTT, diluted 100-fold then re-immunoprecipitated with a second antibody, re-ChIP.

In the case of `C=C1/C(=C\C=C2/CCC[C@]3(C)[C@@H]([C@H](C)/C=C/[C@@H](O)C4CC4)CC[C@@H]23)C[C@@H](O)C[C@@H]1O` [calcipotriol, 1α,24-(OH)2-24-cyclopropyl-D3], in the assay on SMAD3, the “TGFβ1-induced phosphorylation and subsequent nuclear translocation of SMAD3” value is on record as “did not significantly affect”. The “TGFβ1 induced recruitment of p300 and CBP and histone H3 hyperacetylation at COL1A1 regulatory region” value in assay [1] is “lost”.
